Assay results as given in patent US10106539B2, “Spiro-indolines for the treatment and prophylaxis of respiratory syncytial virus infection (RSV)” (REVIRAL LIMITED, priority 2014, dated 2018).

Columns and labels:
RSV A2 (PRNT1) = experiment: RSV plaque reduction assay, A2 (PRNT1), Vero cells; format: cell-based, respiratory syncytial virus; conditions: human respiratory syncytial virus, Vero; n = 4
Description: Plaque Reduction Assay: […] After an overnight incubation at 37° C. in a humidified 5% CO2 atmosphere, the monolayer of cells should be approximately 90% confluent. Antiviral compounds were titrated in pre-warmed Serum Free (SF) Optimem in a U-bottom 96 well plate. […] Media was then removed from cells and replaced with PBS (100 μl/well). RSV stock was thawed and diluted in SF Optimem media to 4000 PFU/mLl. An equal volume of virus was added to compounds on the titration plate. PBS was removed from cells which were then inoculated with the virus/compound solution (50 μL/well). Cells were incubated for 2 h in a 37° C.+5% CO2 humidified incubator to allow infection. […] Immunostaining Procedure: Media was removed from cells and the monolayer washed with PBS. Cells were fixed with ice cold 80% Acetone in PBS (100 μl/well) for 20 mins at −20° C. […] Blocking solution was removed and plates washed once with PBS-T. Primary antibody in blocking solution was added to plates (50 μl/well) and incubated for 1 h at 37° C. Plates were then washed 3 times with PBS-T. Secondary antibody in blocking solution was added to plates (50 μL/well) and incubated for 1 h at 37° C. in the dark. […] Plates were scanned on the Odyssey Imager (Li-Cor Biosciences) at a resolution of […], medium quality and level 5 intensity in the […]. Data Analysis: Images obtained were saved and plaque numbers counted with the aid of computer imaging software. EC50 values for compounds were derived from dose response curves [three variable log (inhibitor) vs response] obtained using Graphpad Prism software.

RSV-A5 (6440) = experiment: RSV plaque reduction assay, RSV-A5 (6440), Vero cells; format: cell-based; conditions: human respiratory syncytial virus, n = 1
Description: (§1) Plaque Reduction Assay: […] After an overnight incubation at 37° C. in a humidified 5% CO2 atmosphere, the monolayer of cells should be approximately 90% confluent. Antiviral compounds were titrated in pre-warmed Serum Free (SF) Optimem in a U-bottom 96 well plate. […] Media was then removed from cells and replaced with PBS (100 μl/well). RSV stock was thawed and diluted in SF Optimem media to 4000 PFU/mLl. An equal volume of virus was added to compounds on the titration plate. PBS was removed from cells which were then inoculated with the virus/compound solution (50 μL/well). Cells were incubated for 2 h in a 37° C.+5% CO2 humidified incubator to allow infection. […] Immunostaining Procedure: Media was removed from cells and the monolayer washed with PBS. Cells were fixed with ice cold 80% Acetone in PBS (100 μl/well) for 20 mins at −20° C. […] Blocking solution was removed and plates washed once with PBS-T. Primary antibody in blocking solution was added to plates (50 μl/well) and incubated for 1 h at 37° C. Plates were then washed 3 times with PBS-T. Secondary antibody in blocking solution was added to plates (50 μL/well) and incubated for 1 h at 37° C. in the dark. […] Data Analysis: Images obtained were saved and plaque numbers counted with the aid of computer imaging software. […]

RSV-A5 (6470) = experiment: RSV plaque reduction assay, RSV-A5 (6470), Vero cells; format: cell-based; conditions: human respiratory syncytial virus, n = 1
Description: as §1

RSV-BA (Brasil) = experiment: RSV plaque reduction assay, RSV-BA (Brasil), Vero cells; format: cell-based; conditions: human respiratory syncytial virus, n = 1
Description: as §1

[1] = Plasma protein binding (equilibrium dialysis), human; format: in vitro ADME; conditions: plasma (100%), pH 7.4, read-out: PPB fraction unbound, human
Description: Protein Binding Determination: Experimental Procedure
Solutions of test compound (5 μM, 0.5% final DMSO concentration) are prepared in buffer (pH 7.4) and 100% species-specific plasma. The experiment is performed using equilibrium dialysis with the two compartments separated by a semi-permeable membrane. The buffer solution is added to one side of the membrane and the plasma solution to the other side. After equilibration, samples are taken from both sides of the membrane. Standards are prepared in plasma and buffer and are incubated at 37° C.
Test compound incubations are performed in duplicate. A control compound is included in each experiment.
The solutions for each batch of compounds are combined into two groups (protein-free and protein-containing), then cassette analysed by LC-MS/MS using two sets of calibration standards for protein-free (7 points) and protein-containing solutions (6 points).

[2] = Liver microsomal stability, dog; format: in vitro ADME; conditions: male, Beagle, pooled liver microsomes, pH 7.4, Comparative Example 2, read-out: Liver Microsomal Stability T1/2, dog (Table 5)
Description: Microsomal Incubation: Experimental Procedure
Pooled human liver microsomes (pooled male and female), pooled rat liver microsomes (male Sprague Dawley rats) and pooled dog liver microsomes (male Beagle dog) are purchased from a reputable commercial supplier and stored at −80° C. prior to use.
Microsomes (final protein concentration 0.5 mg/mL), 0.1 M phosphate buffer pH 7.4 and test compound (final substrate concentration 3 μM; final DMSO concentration 0.25%) are pre-incubated at 37° C. prior to the addition of NADPH (final concentration 1 mM) to initiate the reaction. The final incubation volume is 50 μL. A control incubation is included for each compound tested where 0.1 M phosphate buffer pH 7.4 is added instead of NADPH (minus NADPH). Two control compounds are included with each species. All incubations are performed singularly for each test compound.
Compounds are incubated for 0, 5, 15, 30 and 45 min. The control (minus NADPH) is incubated for 45 min only. The reactions are stopped by transferring 25 μL of incubate to 50 μL methanol at the appropriate time points. The termination plates are centrifuged at 2,500 rpm for 20 min at 4° C. to precipitate the protein. Following protein precipitation, the sample supernatants are combined in cassettes of up to 4 compounds, internal standard is added and samples analysed by LC-MS/MS. From a plot of ln peak area ratio (compound peak area/internal standard peak area) against time, the gradient of the line is determined. Subsequently, half-life and intrinsic clearance are calculated

SMILES | IC50 (RSV A2 (PRNT1)) | IC90 (RSV A2 (PRNT1)) | IC50 (RSV-A5 (6440)) | IC90 (RSV-A5 (6440)) | IC50 (RSV-A5 (6470)) | IC90 (RSV-A5 (6470)) | IC50 (RSV-BA (Brasil)) | IC90 (RSV-BA (Brasil)) | fraction unbound at 5 μM [1] | half-life at 3 μM [2]
NCc1ccc2c(c1)nc(CN1C(=O)C3(CC3)c3ccc(F)cc31)n2CCCC(F)(F)F [Example 1, 1′-{[5-(Aminomethyl)-1-(4,4,4-trifluorobutyl)-1H-1,3-benzodiazol-2-yl]methyl}-6′-fluoro-1′,2′-dihydrospiro[cyclopropane-1,3′-indole]-2′-one] | 2.1 nM | 13.5 nM | 5.7 nM | 106 nM | 10.3 nM | 81 nM | 2.1 nM | 34.5 nM | 0.67 | –
CC(C)CCn1c(CN2C(=O)C3(CC3)c3ccccc32)nc2cc(CN)ccc21 [RV039, 1′-((5-(aminomethyl)-1-isopentyl-1H-benzo[d]imidazol-2-yl)methyl)spiro[cyclopropane-1,3′-indolin]-2′-one, reference compound] | – | – | – | – | – | – | – | – | – | > 1.67 h
